Results: PubChem BioAssay (NCI)
“And” between values parts separate entries of the source, which are not always exact repeats. Identical values can stand only once.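 All cell lines were grown in 96-well plates and treated with compound for 48 hours. Abbreviation: GI50, concentration required for 50% inhibition of growth. TGI marks complete inhibition of growth.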

Key:
Assay in all cases: NCI anticancer screen, dose series, 48 h
[1] = tested on: OVCAR-3 ovarian
[2] = tested on: T-47D breast
[3] = tested on: OVCAR-4 ovarian
[4] = tested on: SR leukemia
[5] = tested on: NCI-H23 lung
[6] = tested on: SF-268 CNS
[7] = tested on: OVCAR-5 ovarian
[8] = tested on: HCT-15 colon
[9] = tested on: DU-145 prostate

Structure (SMILES)	TGI [1] [µM]	TGI [2] [µM]	TGI [3] [µM]	TGI [4] [µM]	TGI [5] [µM]	TGI [6] [µM]	TGI [7]	TGI [8] [µM]	TGI [9] [µM]	GI50 [1]	GI50 [3]	GI50 [6]	GI50 [7]	GI50 [2] [µM]	GI50 [5] [µM]	GI50 [4] [µM]	GI50 [8] [µM]	GI50 [9] [µM]
c1csc(-c2ccsc2-c2ccsc2)c1	87.6	> 100	> 100	> 100	> 100	> 100	> 100 µM	> 100	> 100	–	–	–	–	–	–	–	–	–
COc1cc(OC2OC(COC(=O)c3cc(O)c(O)c(O)c3)C(O)C(O)C2O)ccc1O (configuration not stated)	> 100	–	> 100	> 100	> 100	> 100	> 100 µM	> 100	> 100	–	–	–	–	–	–	–	–	–
CCCCCN(CCCCC)CC(C)(C)C(O)c1ccc(OC)c2ccccc12 (configuration not stated)	26	21.1	27.9	11.3	32.3	31.5	31.4 µM	21	28.2	–	–	–	–	–	–	–	–	–
CC(=O)OCCCCn1cc(Cn2ccc(=O)n(Cc3cn(CCCCOC(C)=O)nn3)c2=O)nn1	> 100	> 100	> 100	–	> 100	> 100	> 100 µM	> 100	> 100	–	–	–	–	–	–	–	–	–
COc1ccc(N=C2C(=Nc3ccc(OC)cc3)N(c3ccc(N(C)C)cc3)C(=S)N2c2ccc(OC)cc2)cc1	> 100	> 100	> 100	> 100	> 100	> 100	> 100 µM	> 100	> 100	–	–	–	–	–	–	–	–	–
CC(=O)OC(C)(C)CCC(=O)[C@](C)(O)[C@H]1[C@H](O)C[C@@]2(C)[C@@H]3CC=C4C(C)=C(OC5OC(CO)C(O)C(O)C5O)C(=O)C[C@@H]4[C@]3(C)C(=O)C[C@]12C (some centres not stated)	> 100	> 100	> 100	> 100	> 100	> 100	> 100 µM	> 100	> 100	–	–	–	–	–	–	–	–	–
CC(=O)NC1(C(=O)N[C@@H](Cc2ccccc2)C(=O)NC2CCCCC2)Cc2ccc3ccccc3c2-c2c(ccc3ccccc23)C1	> 100	> 100	> 100	> 100	–	> 100	> 100 µM and 98 µM	> 100	–	2.91 µM and 7.77 µM	1.17 µM and 6.26 µM	8.66 µM and 31.3 µM	26.5 µM and 11.5 µM	–	–	–	–	–
Cc1cc(O)cc(O)c1C(=O)O[C@]1(C)C(=O)C=C2C=C(/C=C/C(=O)O)OC=C2C1=O	> 100	> 100	> 100	99	> 100	> 100	> 100 µM	> 100	> 100	–	–	–	–	–	–	–	–	–
O=C(N/N=C(/COc1ccccc1Cl)N=Cc1ccncc1)c1ccncc1	> 100	> 100	> 100	–	> 100	> 100	> 100 µM	> 100	> 100	–	–	–	–	–	–	–	–	–
CCCCCCCCCCCCCCCCCC(=O)Nc1ccn(C2CCC(COP(=O)(O)O)O2)c(=O)n1 (configuration not stated)	> 100	> 100	> 100	> 100	> 100	> 100	> 100 µM	> 100	> 100	–	–	–	–	–	–	–	–	–
CCOC(=O)c1[nH]c2cccc3c2c1CC[C@H](NC(=O)C(F)(F)F)C3=O	> 100	–	80.5	> 100	> 100	> 100	> 100 µM	> 100	> 100	–	–	–	–	–	–	–	–	–
CN[C@@H](C)[C@@H](O)c1ccccc1	> 10	> 100	> 100	–	> 100	> 100	> 100 µM	> 100	> 100	–	–	–	–	–	–	–	–	–
Nc1nc(=O)n(C2OC(CO)C(O)C2O)c2ncc(-c3ccc(-c4ccccc4)cc3)nc12 (configuration not stated)	–	> 100	> 100	> 100	> 100	> 100	> 100 µM	> 100	> 100	–	–	–	–	–	–	–	–	–
COc1c(C)c(C/C=C(\C)CC/C=C(\C)CC/C=C(\C)CCC=C(C)C)c(OC)c2ccccc12	> 100	–	> 100	90.6	> 100	> 100	> 100 µM	> 100	> 100	–	–	–	–	–	–	–	–	–
CC(=O)Oc1cc(OC(C)=O)c2c(C)cc(=O)oc2c1	> 100	–	> 100	> 100	> 100	> 100	> 100 µM	> 100	> 100	–	–	–	–	–	–	–	–	–
Nc1ccc2ccc(-c3ccc[nH]3)nc2n1	> 100	> 100	> 100	–	> 100	> 100	> 100 µM	> 100	–	–	–	–	–	–	–	–	–	–
CC1=CCC[C@H]2[C@](C)(CC3=CC(=O)C(Sc4ccccc4)=CC3=O)[C@@H](C)CC[C@]12C	31.4	72	43.7	48.3	28.2	–	32.1 µM	35.7	47.4	–	–	–	–	20.4	14.7	–	–	–
CC(C)(C)OC(=O)N1[C@@H]2Cc3ccc(N)cc3[C@@]1(C)c1ccccc12	68	70.7	> 100	–	60.4	> 100	> 100 µM	32.9	> 100	–	–	–	–	–	–	–	–	–
O=C(O)CCc1ccc2c(c1)CC1(Cc3ccccc3C1)C2	> 100	> 100	> 100	> 100	> 100	–	> 100 µM	> 100	–	–	–	–	–	–	–	–	–	–
NC(CC(O)(c1ccccc1)c1ccccc1)c1ccccc1S (configuration not stated)	29.5	37.4	29.7	> 100	37.7	24.8	31.7 µM	33.6	–	–	–	–	–	–	–	–	–	–
N[C@H](CCC(=O)NCP(=O)(O)O)C(=O)O	> 100	> 100	–	> 100	> 100	–	> 100 µM	> 100	–	–	–	–	–	–	–	–	–	–
CCC(=O)/C(=C\I)c1ccccc1	3.12	–	–	–	14.4	40.3	3.48 µM	3.37	18.4	–	–	–	–	–	–	–	–	–
Clc1ccc(C2CC(c3cccc(Nc4ccncc4)c3)=NN2c2cc(Cl)cc(Cl)c2)cc1 (configuration not stated)	3.41	–	3.39	4.65	3.34	3.59	3.33 µM	3.45	3.39	1.84 µM	1.8 µM	1.78 µM	1.78 µM	–	1.71	1.86	1.77	1.85
